Our source for the EC50 and Ki values is ChEMBL document CHEMBL1139584 (Bioorg Med Chem Lett, 2005).

The target of assay [1] is T1, Somatostatin receptor type 5 (Homo sapiens, UniProt P35346). Description: Inhibition of forskolin-induced cAMP accumulation in CHO-K1 cells expressing human sst5 receptor. The assay is classed as functional, cell-based. (In general: Changes in cAMP serve as a functional read-out for many G protein-coupled receptors.)
Assay [2] concerns the target T2, Somatostatin receptor type 2 (Homo sapiens, UniProt P30874). Description: Inhibitory constant against human sst2 receptor at a dose of 10 uM.
In assay [3] the target is T1, Somatostatin receptor type 5. Description: Inhibitory constant against human sst5 receptor at a dose of 10 uM.
The target in assay [4] is T2, Somatostatin receptor type 2. Nature of the assay: Inhibition of forskolin-induced cAMP accumulation in CHO-K1 cells expressing human sst2 receptor. The assay is classed as functional, cell-based.
In assay [5] the target is Somatostatin receptor type 1 (Homo sapiens, UniProt P30872). Description: Binding affinity against human sst1 receptor at a dose of 10 uM.
Assay [6] has as its target Somatostatin receptor type 3 (Homo sapiens, UniProt P32745). Nature of the assay: Binding affinity against human sst3 receptor at 10 uM.
Assay [7] concerns the target Somatostatin receptor type 4 (Homo sapiens, UniProt P31391). Nature of the assay: Binding affinity against human sst4 receptor at a dose of 10 uM.

T2 sequence (P30874 whole entry): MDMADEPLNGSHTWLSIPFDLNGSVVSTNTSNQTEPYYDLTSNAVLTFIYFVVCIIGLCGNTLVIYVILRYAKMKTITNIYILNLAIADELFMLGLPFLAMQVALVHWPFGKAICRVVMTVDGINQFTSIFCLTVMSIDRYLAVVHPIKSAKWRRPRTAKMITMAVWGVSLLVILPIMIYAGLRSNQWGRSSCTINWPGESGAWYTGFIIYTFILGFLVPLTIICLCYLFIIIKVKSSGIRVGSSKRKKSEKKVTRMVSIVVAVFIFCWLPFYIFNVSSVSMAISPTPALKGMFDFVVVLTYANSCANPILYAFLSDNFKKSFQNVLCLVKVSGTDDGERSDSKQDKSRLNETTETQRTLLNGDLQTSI
Chain of Somatostatin receptor type 4 (P31391 whole entry): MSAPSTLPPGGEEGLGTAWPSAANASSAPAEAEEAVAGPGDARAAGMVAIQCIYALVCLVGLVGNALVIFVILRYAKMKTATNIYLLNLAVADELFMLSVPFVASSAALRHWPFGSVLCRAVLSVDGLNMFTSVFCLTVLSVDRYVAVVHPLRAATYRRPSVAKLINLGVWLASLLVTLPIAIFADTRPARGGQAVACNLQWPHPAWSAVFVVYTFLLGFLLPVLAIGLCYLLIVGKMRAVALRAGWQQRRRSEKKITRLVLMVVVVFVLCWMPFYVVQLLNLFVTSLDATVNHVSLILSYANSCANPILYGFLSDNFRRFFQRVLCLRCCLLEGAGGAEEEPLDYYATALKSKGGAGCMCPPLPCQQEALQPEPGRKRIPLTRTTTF
Chain of Somatostatin receptor type 3 (P32745 whole entry): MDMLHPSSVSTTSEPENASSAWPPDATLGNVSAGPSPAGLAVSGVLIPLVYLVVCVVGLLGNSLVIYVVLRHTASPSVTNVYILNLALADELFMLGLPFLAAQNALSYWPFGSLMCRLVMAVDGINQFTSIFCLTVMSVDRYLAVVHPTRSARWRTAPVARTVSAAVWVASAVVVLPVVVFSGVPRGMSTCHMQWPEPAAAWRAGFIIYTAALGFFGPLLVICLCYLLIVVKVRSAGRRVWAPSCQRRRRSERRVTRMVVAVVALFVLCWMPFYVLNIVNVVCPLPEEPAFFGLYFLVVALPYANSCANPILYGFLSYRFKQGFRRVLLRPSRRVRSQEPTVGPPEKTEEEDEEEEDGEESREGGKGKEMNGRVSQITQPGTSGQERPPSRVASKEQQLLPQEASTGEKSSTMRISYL
T1 sequence (P35346 whole entry): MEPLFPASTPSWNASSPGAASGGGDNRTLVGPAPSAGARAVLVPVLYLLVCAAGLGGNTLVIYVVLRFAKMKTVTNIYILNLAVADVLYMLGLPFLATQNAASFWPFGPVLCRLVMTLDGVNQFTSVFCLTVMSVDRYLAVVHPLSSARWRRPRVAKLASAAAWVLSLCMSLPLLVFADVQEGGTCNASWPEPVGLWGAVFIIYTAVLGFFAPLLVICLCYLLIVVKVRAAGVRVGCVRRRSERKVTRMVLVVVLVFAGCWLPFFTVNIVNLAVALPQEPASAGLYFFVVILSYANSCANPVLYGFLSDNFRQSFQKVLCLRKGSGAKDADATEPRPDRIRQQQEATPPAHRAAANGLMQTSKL
Chain of Somatostatin receptor type 1 (P30872 whole entry): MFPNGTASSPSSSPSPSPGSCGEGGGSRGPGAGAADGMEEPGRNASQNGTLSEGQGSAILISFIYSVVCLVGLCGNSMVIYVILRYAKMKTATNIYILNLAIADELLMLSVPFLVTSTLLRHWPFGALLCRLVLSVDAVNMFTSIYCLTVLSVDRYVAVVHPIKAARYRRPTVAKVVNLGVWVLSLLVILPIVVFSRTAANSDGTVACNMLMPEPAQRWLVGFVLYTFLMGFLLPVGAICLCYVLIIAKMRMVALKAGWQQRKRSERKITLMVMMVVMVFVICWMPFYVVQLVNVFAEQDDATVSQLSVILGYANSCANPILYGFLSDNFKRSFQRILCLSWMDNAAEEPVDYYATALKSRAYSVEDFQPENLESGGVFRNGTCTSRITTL

`NCCCCn1c(SCCc2c[nH]c3ccc(Cl)cc23)nnc1-c1ccc2ccccc2n1`: the EC50 is 52 nM in assay [1] and 6.3 nM in assay [4]. The inhibition constant (Ki) was 5.6 nM in assay [2] and 2.3 nM in assay [3].
`CCc1ccc(-c2nnc(SCCc3c[nH]c4ccccc34)n2CCCCN)cc1`: the Ki came to 430 nM in assay [2] and 26 nM in assay [3].
On to `NCCCCn1c(SCCc2c[nH]c3cc(F)ccc23)nnc1-c1ccc2ccccc2n1`, for which the concentration for a half-maximal effect (EC50) in assay [1] amounted to 44 nM; in assay [4], 14 nM. Besides, the inhibition constant Ki was 2.7 nM in assay [2]; 58 nM in assay [5]; 100 nM in assay [6]; 1.7 nM in assay [3]; 74 nM in assay [7].
For `NCCCCn1c(SCCc2c[nH]c3ccccc23)nnc1-c1cnc2ccccc2n1`, the Ki in assay [2] amounted to 32 nM; in assay [3], 56 nM.
As to `NCCCCn1c(SCCc2c[nH]c3ccccc23)nnc1-c1cccc2cc[nH]c12`, the Ki came out at 220 nM in assay [2] and 64 nM in assay [3].
The corresponding values for `NCCCCCn1c(SCCc2c[nH]c3ccccc23)nnc1-c1ccc2ccccc2c1` are 610 nM and 70 nM.
The corresponding values for `NCCCn1c(SCCc2c[nH]c3ccccc23)nnc1-c1ccc2ccccc2c1` are 640 nM and 66 nM.
The corresponding values for `Cc1cccc2c(C(=O)C(C)(C)CSc3nnc(-c4ccc5ccccc5n4)n3CCCCN)c[nH]c12` are 23 nM and 9.3 nM.
`NCCCCn1c(SCCc2c[nH]c3ccccc23)nnc1-c1ccc2cc(F)ccc2n1`: the inhibition constant Ki in assay [2] amounted to 12 nM; in assay [3], 7.8 nM.
For the compound `Cc1cccc2c(CCSc3nnc(-c4ccc5ccccc5n4)n3CCCCN)c[nH]c12`, the EC50 in assay [1] stood at 34 nM; in assay [4], 22 nM. Also, the Ki in assay [2] came to 1.8 nM; in assay [5] it was 130 nM; in assay [6], 41 nM; in assay [3] it was 2.1 nM; in assay [7], 140 nM.
On to `NCCCCn1c(SCCc2c[nH]c3ccccc23)nnc1-c1cccc2ccccc12`, for which the Ki in assay [2] amounted to 150 nM; in assay [3] it was 410 nM.
With `NCCCCn1c(SCCc2c[nH]c3ccccc23)nnc1-c1cc2ccccc2s1`, the Ki in assay [2] stood at 160 nM; in assay [3], 58 nM.
Turning to `NCCCCn1c(SCCc2c[nH]c3c(Cl)cccc23)nnc1-c1ccc2ccccc2n1`, the Ki in assay [2] was 4 nM; in assay [5], 180 nM; in assay [6], 97 nM; in assay [3] it was 8.4 nM; in assay [7] it was 130 nM.
In the case of `Cc1cccc2c(C(=O)CCSc3nnc(-c4ccc5ccccc5n4)n3CCCCN)c[nH]c12`, the figures for the EC50 in assay [1] and in assay [4] were 2.3 nM and 4 nM, respectively. Moreover, the Ki in assay [2] stood at 2 nM; in assay [5] it was 530 nM; in assay [6] it was 170 nM; in assay [3] it was 0.38 nM; in assay [7], 800 nM.
For `NCCCCn1c(SCCc2c[nH]c3ccccc23)nnc1-c1cccc(Br)c1`, the figures for the Ki in assay [2] and in assay [3] were 250 nM and 51 nM, respectively.
Consider `NCCCCn1c(SCCc2c[nH]c3ccccc23)nnc1-c1ccc2ccccc2c1`, for which the Ki in assay [2] was determined as 100 nM; in assay [3], 27 nM.
As to `CN(C)CCCCn1c(SCCc2c[nH]c3ccccc23)nnc1-c1ccc2ccccc2c1`, the results for the Ki in assay [2] and in assay [3] were 2800 nM and 1300 nM, respectively.

The EC50 is the concentration that produces a half-maximal response. A high value points to weaker potency. A word on the Ki: it is the dissociation constant of the complex between target and ligand, obtained from inhibition or displacement. A high value points to a looser hold on the target.
